Reference: patent US20220387608A1, “ADRENOMEDULLIN-ANALOGUES FOR LONG-TERM STABILIZATION AND THEIR USE” (Bayer Aktiengesellschaft, priority 2019, published 2022)
Positions of bridges follow the written chain, without caps; N, C: chain ends. Non-standard residues stand in square brackets, D forms with d. Residues, ends and D or L forms follow the SMILES beside them. *: point of attachment. X1 = CN(C)c1ccc2c(c1)Oc1cc(N(C)C)ccc1C21OC(=O)c2ccc(C(=O)*)cc21; C18 diacid = O=C(O)CCCCCCCCCCCCCCCCC(=O)*; Dap = NC[C@H](N)C(=O)O

Assay: Stability determination of TAMRA-labelled adrenomedullin analogues in human blood plasma
Assay type: in vitro ADME
Details: 37° C., 10^-5 M, slow-decay phase half-life, read-out: t1/2 (slow) (converted)
Method: The stability of the peptides was investigated using fluorescently labeled analogues, which were prepared as described above.
The TAMRA-labeled analogues were dissolved in 1.5 m1 of human blood plasma to a concentration of 10^−5 M and incubated at 37° C. under constant shaking. Samples of 150 μl were taken at different time points and precipitated with 300 μl Ethanol/ACN (1:1) for at least 1 h at −20° C. After centrifugation for 30 s at 12000 rpm, the supernatant was collected and incubated at −20° C. for at least 3 h. Subsequently, it was transferred into Costar® Spin-X® Centrifuge Tube Filters (0.22 μm) and centrifuged for 1 h at 12000 rpm. The samples were analyzed by RP-HPLC using a VariTide RPC column (Agilent Technologies, 250 mm×4.6 mm, […], 200 Å) with linear gradients of 0.1% TFA in water and 0.08% TFA in ACN; fluorescence measurement (λex=525 nm; λem=572 nm) was used for the detection of the analogues and their N-terminal fragments. The percentage of intact peptide was determined by peak integration. The values of peaks containing additional cleavage fragments were corrected by comparing intensities of cleavage fragments and intact peptide using MALDI-MS analysis (UltraflexIII, Bruker). The stability of the peptides was calculated with GraphPad Prism 5 (GraphPad Software) using a two phase exponential decay function for the determination of slow-decay phase half-lives (ln(2)/Kslow; Kslow: rate constant of slow part of exponential decay).

SMILES	half-life [h]
CC[C@H](C)[C@H](NC(=O)[C@H](CCC(N)=O)NC(=O)[C@H](Cc1c[nH]cn1)NC(=O)[C@H](C)NC(=O)[C@H](CC(C)C)NC(=O)[C@H](CCCCN)NC(=O)[C@H](CCC(N)=O)NC(=O)[C@@H](NC(=O)[C@@H](NC(=O)[C@@H]1CCC(=O)NC[C@H](NC(=O)CNC(=O)[C@H](CCCCNC(=O)CCCCCCCCCCCCCCCCC(=O)O)NC(=O)c2ccc3c(c2)C2(OC3=O)c3ccc(N(C)C)cc3Oc3cc(N(C)C)ccc32)C(=O)N[C@@H](CCCNC(=N)N)C(=O)N[C@@H](Cc2ccccc2)C(=O)NCC(=O)N[C@@H]([C@@H](C)O)C(=O)N1)[C@@H](C)O)C(C)C)C(=O)N[C@@H](Cc1ccc(O)cc1)C(=O)N[C@@H](CCC(N)=O)C(=O)N[C@@H](Cc1ccccc1)C(=O)N[C@H](C(=O)N[C@@H](CC(=O)O)C(=O)N[C@@H](CCCCN)C(=O)N[C@@H](CC(=O)O)C(=O)N[C@@H](CCCCN)C(=O)N[C@@H](CC(=O)O)C(=O)N[C@@H](CC(N)=O)C(=O)N[C@H](C(=O)N[C@@H](C)C(=O)N1CCC[C@H]1C(=O)N[C@@H](CCCNC(=N)N)C(=O)N[C@@H](CO)C(=O)N[C@@H](CCCCN)C(=O)N[C@H](C(=O)N[C@@H](CO)C(=O)N1CCC[C@H]1C(=O)N[C@@H](CCC(N)=O)C(=O)NCC(=O)N[C@@H](Cc1ccc(O)cc1)C(N)=O)[C@@H](C)CC)C(C)C)[C@@H](C)O [TAM-15] (X1-K(C18 diacid)G[Dap]RFGTETVQKLAHQIYQFTDKDKDNVAPRSKISPQGY-NH2; lactam 3-8)	> 144
CC[C@H](C)[C@H](NC(=O)[C@H](CCC(N)=O)NC(=O)[C@H](Cc1c[nH]cn1)NC(=O)[C@H](C)NC(=O)[C@H](CC(C)C)NC(=O)[C@H](CCCCN)NC(=O)[C@H](CCC(N)=O)NC(=O)[C@@H](NC(=O)[C@@H](NC(=O)[C@@H]1CSSC[C@H](NC(=O)CNC(=O)[C@H](CCCCNC(=O)CCCCCCCCCCCCCCCCC(=O)O)NC(=O)c2ccc3c(c2)C2(OC3=O)c3ccc(N(C)C)cc3Oc3cc(N(C)C)ccc32)C(=O)N[C@@H](CCCNC(=N)N)C(=O)N[C@@H](Cc2ccccc2)C(=O)NCC(=O)N[C@@H]([C@@H](C)O)C(=O)N1)[C@@H](C)O)C(C)C)C(=O)N[C@@H](Cc1ccc(O)cc1)C(=O)N[C@@H](CCC(N)=O)C(=O)N[C@@H](Cc1ccccc1)C(=O)N[C@H](C(=O)N[C@@H](CC(=O)O)C(=O)N[C@@H](CCCCN)C(=O)N[C@@H](CC(=O)O)C(=O)N[C@@H](CCCCN)C(=O)N[C@@H](CC(=O)O)C(=O)N[C@@H](CC(N)=O)C(=O)N[C@H](C(=O)N[C@@H](C)C(=O)N1CCC[C@H]1C(=O)N[C@H]1CCCCNC(=O)C[C@@H](C(=O)N2CCC[C@H]2C(=O)N[C@@H](CCC(N)=O)C(=O)NCC(=O)N[C@@H](Cc2ccc(O)cc2)C(N)=O)NC(=O)[C@H]([C@@H](C)CC)NC(=O)[C@H](CCCCN)NC(=O)[C@H](CO)NC1=O)C(C)C)[C@@H](C)O [TAM-13] (X1-K(C18 diacid)GCRFGTCTVQKLAHQIYQFTDKDKDNVAPKSKIDPQGY-NH2; disulfide 3-8; lactam 31-35)	> 144
